Experiments:
CYP 3A4 = target: T1, CYP 3A4 (Homo sapiens, UniProt P08684); assay: Human Liver Microsome CYP 3A4 Inhibition; type: in vitro ADME; settings: human liver microsomes, midazolam substrate; read-out: inhibited CYP3A4 microsomes, IC50
T1 construct: followed by 222.2 ml of 20 mg/mL HLM (BD Gentest); tissue BD Gentest; host or cells: human liver microsomes
Method: Determining the IC-50 for Human Liver Microsome CYP 3A4 Inhibition
Postassium Phosphate Buffer pH 7.4 (39.667 mL) is chilled in an ice bath and added to a 50 ml plastic tube. A 2 mM midazolam solution is prepared. 111.1 ul of 2 mM midazolam is added to the buffer followed by 222.2 ml of 20 mg/mL HLM (BD Gentest). The incubation mixture was gently inverted and equilibrated at 37° C. for 5 min. A stock inhibitor solution is prepared, such as in DMSO. Incubation mixture (801 ul) is added into 96-well, 1.2 mL plastic tubes. Inhibitor is added at various concentrations (e.g. 30 uM to 120 nM). The tubes are sealed and mix by inverting 5 times gently. The incubation mixture containing inhibitor (270 uL) is added by aliquot into wells of a 1 mL, 96-well block (duplicate). The block is placed into a 37° C. water bath and equilibrated for 3 min. 10 mM NADPH (30 ml) is added to all samples. After 5 minutes, the reactions are stopped by adding 300 ml of Quench Solution [0.1% TFA in CH3CN]. 1′-OH-Midazolam-d313C (2 mg/mL 30 uL) is added, the block is gently vortexed then centrifuged at 3000 rpm for 10 minutes at 4° C. 50 μL of supernatant from all samples is added by aliquot into a shorter, 96-well block. The aliquoted supernatants are pooled with other assay(s) and HPLC Grade Water (50 ul) is added to all samples. After covering and shaking by vortex gently for 2 minutes, the solutions were analyzed by LC-MS (API 3000,5% MeOH w/0.1% AcOH to 95% MeOH w/0.1% AcOH). 37 nM ketoconazole is used as a control.

CYP 2D6 = target: T2, CYP 2D6 (Homo sapiens, UniProt P10635); assay: Human Liver Microsome CYP 2D6 Inhibition; type: in vitro ADME; settings: human liver microsomes, bufuralol substrate; read-out: inhibited CYP2D6 microsomes, IC50
T2 construct: followed by 555.6 ml of 20 mg/mL HLM (BD Gentest); tissue BD Gentest; host or cells: human liver microsomes
In short: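 Pooled human liver microsomes with bufuralol in potassium phosphate pH 7.4, preincubated with inhibitor at 37 °C; reaction started with NADPH, quenched after 5 min with 0.1% TFA in acetonitrile. 1′-OH-bufuralol quantified by LC-MS with deuterated internal standard; IC50 determined, quinidine 500 nM as control.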

[1] = system: VEGF-stimulated HUVEC proliferation (Human Umbilical Vein Endothelial cells); assay: HUVEC Proliferation Assay; type: cell-based; settings: VEGF 50 ng/mL, 72 h, CyQuant fluorescent dye, read-out: inhibited VEGF-stimulated HUVEC proliferation at a level
In short: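 HUVEC (passage 2–3) were seeded in DMEM+10% FBS for 22 h, then pre-incubated 2–3 h with 5-point, 5-fold compound dilutions (0.25% DMSO). They were then stimulated with VEGF (50 ng/mL final) for 72 h at 37 °C. Proliferation was read by CyQuant fluorescence (485/530 nm) after freeze-thaw, and IC50 came from a 4-parameter fit.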

T2 sequence (P10635 whole entry): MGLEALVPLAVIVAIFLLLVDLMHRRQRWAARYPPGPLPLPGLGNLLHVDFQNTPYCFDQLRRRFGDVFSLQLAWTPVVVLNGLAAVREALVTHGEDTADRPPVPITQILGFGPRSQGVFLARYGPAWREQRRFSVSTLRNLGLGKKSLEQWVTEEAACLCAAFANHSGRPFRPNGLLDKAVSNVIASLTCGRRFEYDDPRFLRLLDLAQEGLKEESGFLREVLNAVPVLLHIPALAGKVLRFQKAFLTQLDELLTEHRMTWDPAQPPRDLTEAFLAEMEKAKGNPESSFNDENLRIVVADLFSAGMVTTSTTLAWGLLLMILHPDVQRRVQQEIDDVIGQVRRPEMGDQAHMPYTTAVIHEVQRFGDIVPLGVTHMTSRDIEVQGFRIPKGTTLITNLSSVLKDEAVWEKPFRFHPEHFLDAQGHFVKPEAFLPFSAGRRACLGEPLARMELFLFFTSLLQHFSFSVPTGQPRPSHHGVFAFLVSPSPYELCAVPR
T1 sequence (P08684 whole entry): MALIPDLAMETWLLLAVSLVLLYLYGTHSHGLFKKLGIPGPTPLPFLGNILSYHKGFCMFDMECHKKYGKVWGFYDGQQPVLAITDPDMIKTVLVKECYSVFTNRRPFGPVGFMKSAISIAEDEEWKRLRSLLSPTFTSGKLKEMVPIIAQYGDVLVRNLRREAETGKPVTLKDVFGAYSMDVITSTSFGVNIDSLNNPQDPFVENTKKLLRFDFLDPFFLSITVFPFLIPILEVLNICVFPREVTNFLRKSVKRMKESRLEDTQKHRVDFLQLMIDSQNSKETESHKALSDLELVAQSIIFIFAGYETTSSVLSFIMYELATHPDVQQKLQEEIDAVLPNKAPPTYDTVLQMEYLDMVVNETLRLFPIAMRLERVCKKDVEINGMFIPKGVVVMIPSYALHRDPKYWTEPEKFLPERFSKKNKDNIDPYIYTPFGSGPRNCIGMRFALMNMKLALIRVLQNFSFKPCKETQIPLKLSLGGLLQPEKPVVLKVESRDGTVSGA

| IC50 (CYP 3A4) [µM] | IC50 (CYP 2D6) [µM] | SMILES | IC50 [1] [nM] |
| --- | --- | --- | --- |
| > 20 | > 20 | Cc1nc2cc(NC(=O)c3cccnc3NCc3ccnc4[nH]ccc34)ccc2s1 [Example 48, N-(2-methyl-1,3-benzothiazol-5-yl)-2-[(1H-pyrrolo[2,3-b]pyridin-4-ylmethyl)amino]nicotinamide] | < 500 |
| > 20 | > 20 | O=C(Nc1ccc(C(F)(F)C(F)(F)F)cc1)c1cc(F)cnc1NCc1ccnc2[nH]ccc12 [Example 76, 5-fluoro-N-(4-(pentafluoroethyl)phenyl)-2-((1H-pyrrolo[2,3-b]pyridin-4-ylmethyl)amino)-3-pyridinecarboxamide] | < 500 |
| > 20 | > 20 | CN(C)CC(=O)Nc1cc(NC(=O)c2cccnc2NCc2ccnc3[nH]ccc23)ccc1C(C)(C)C [Example 59, N-[4-tert-Butyl-3-(2-dimethylamino-acetylamino)-phenyl]-2-[(1H-pyrrolo[2,3-b]pyridin-4-ylmethyl)-amino]-nicotinamide] | < 500 |
| > 20 | > 20 | CC1(C)CNc2cc(NC(=O)c3cccnc3NCc3ccnc4[nH]ccc34)ccc21 [Example 16, N-(3,3-Dimethyl-2,3-dihydro-1H-indol-6-yl)-2-[(1H-pyrrolo[2,3-b]pyridin-4-ylmethyl)amino]nicotinamide] | < 500 |
| > 20 | > 20 | O=C(Nc1ccc2ccccc2c1)c1cccnc1NCc1ccnc2[nH]ccc12 [Example 50, N-Naphthalen-2-yl-2-[(1H-pyrrolo[2,3-b]pyridin-4-ylmethyl)-amino]-nicotinamide] | < 500 |
| 9.8 | 10 | CC1(C)CNCc2cc(NC(=O)c3cccnc3NCc3ccnc4[nH]ccc34)ccc21 [Example 1, N-(4,4-Dimethyl-1,2,3,4-tetrahydroisoquinolin-7-yl)-2-[(1H-pyrrolo[2,3-b]pyridin-4-ylmethyl)amino]nicotinamide] | < 500 |
| > 20 | > 20 | O=C(Nc1cc(OC[C@H]2CCCO2)cc(C(F)(F)F)c1)c1cccnc1NCc1ccnc2[nH]ccc12 [Example 36, 2-[(1H-pyrrolo[2,3-b]pyridin-4-ylmethyl)amino]-N-[3-[(2R)-tetrahydrofuran-2-ylmethoxy]-5-(trifluoromethyl)phenyl]nicotinamide] | < 500 |

Continued, compound first:

| SMILES | IC50 (CYP 3A4) [µM] | IC50 (CYP 2D6) [µM] | IC50 [1] [nM] |
| --- | --- | --- | --- |
| Cc1cc(NC(=O)c2cc(F)cnc2NCc2ccnc3[nH]ccc23)ccc1C(C)C [Example 83, 5-fluoro-N-(3-methyl-4-(1-methylethyl)phenyl)-2-((1H-pyrrolo[2,3-b]pyridin-4-ylmethyl)amino)-3-pyridinecarboxamide] | > 20 | > 20 | < 500 |
| CC1(C)CNC(=O)c2cc(NC(=O)c3cccnc3NCc3ccnc4[nH]ccc34)ccc21 [Example 56, N-(4,4-Dimethyl-1-oxo-1,2,3,4-tetrahydro-isoquinolin-7-yl)-2-[(1H-pyrrolo[2,3-b]pyridin-4-ylmethyl)-amino]-nicotinamide] | > 20 | > 20 | < 500 |
| CC1(C)CNc2cc(NC(=O)c3cccnc3NCc3ccnc4c3CCN4)ccc21 [Example 32, 2-[(2,3-Dihydro-1H-pyrrolo[2,3-b]pyridin-4-ylmethyl)amino]-N-(3,3-dimethyl-2,3-dihydro-1H-indol-6-yl)nicotinamide] | > 20 | > 20 | < 500 |
| CC(C)(C)c1ccc(NC(=O)c2cccnc2NCc2ccnc3c2CCN3)cc1 [Example 28, N-(4-tert-Butylphenyl)-2-[(2,3-dihydro-1H-pyrrolo[2,3-b]pyridin-4-ylmethyl)amino]nicotinamide] | > 20 | > 20 | < 500 |
| O=C(Nc1ccc(C(F)(F)F)cc1)c1cc(F)cnc1NCc1ccnc2[nH]ncc12 [Example 118, 5-Fluoro-2-((1H-pyrazolo[3,4-b]pyridin-4-ylmethyl)amino)-N-(4-(trifluoromethyl)phenyl)-3-pyridinecarboxamide] | > 20 | > 20 | < 500 |
| O=C(Nc1ccc(C(F)(F)C(F)(F)F)cc1)c1cccnc1NCc1ccnc2[nH]ccc12 [Example 67, N-(4-pentafluoroethyl-phenyl)-2-[(1H-pyrrolo[2,3-b]pyridin-4-ylmethyl)-amino]-nicotinamide] | > 20 | > 20 | < 500 |
| CC1(C)CCNc2cc(NC(=O)c3cccnc3NCc3ccnc4[nH]ccc34)ccc21 [Example 9, N-(4,4-Dimethyl-1,2,3,4-tetrahydroquinolin-7-yl)-2-[(1H-pyrrolo[2,3-b]pyridin-4-ylmethyl)amino]nicotinamide] | > 20 | > 20 | < 500 |
| CC1(C)CN(C(=O)[C@@H]2CCCO2)c2cc(NC(=O)c3cccnc3NCc3ccnc4[nH]ccc34)ccc21 [Example 34, N-{3,3-dimethyl-1-[(2S)-tetrahydrofuran-2-ylcarbonyl]-2,3-dihydro-1H-indol-6-yl}-2-[(1H-pyrrolo[2,3-b]pyridin-4-ylmethyl)amino]nicotinamide] | > 20 | > 20 | < 500 |
| CC(C)c1ccc(NC(=O)c2cc(F)cnc2NCc2ccnc3[nH]ncc23)cc1 [Example 123, 5-Fluoro-N-(4-(1-methylethyl)phenyl)-2-((1H-pyrazolo[3,4-b]pyridin-4-ylmethyl)amino)-3-pyridinecarboxamide] | > 20 | > 20 | < 500 |
| O=C(Nc1ccc(OC(F)(F)F)cc1)c1cc(F)cnc1NCc1ccnc2[nH]ccc12 [Example 96, 5-fluoro-2-((1H-pyrrolo[2,3-b]pyridin-4-ylmethyl)amino)-N-(4-((trifluoromethyl)oxy)phenyl)-3-pyridinecarboxamide] | > 20 | > 20 | < 500 |
| CC1(C)CCCNc2cc(NC(=O)c3cccnc3NCc3ccnc4[nH]ccc34)ccc21 [Example 64, N-(5,5-Dimethyl-2,3,4,5-tetrahydro-1H-benzo[b]azepin-8-yl)-2-[(1H-pyrrolo[2,3-b]pyridin-4-ylmethyl)-amino]-nicotinamide] | > 20 | > 20 | < 500 |

From patent publication US8247556B2, “Method for preparing 6-substituted-7-aza-indoles” (Amgen Inc., priority 2005, dated 2012)
